Where “and” joins values, the source holds several entries; their conditions need not be identical. Equal entries are not always repeated.
Legend:
Type in all cases: cell-based
Design in all cases: GPCRome screening signal at PTGIR / GPCRome screening signal at PTH1R / GPCRome screening signal at PTH2R / GPCRome screening signal at QRFP / GPCRome screening signal at RXFP2 / GPCRome screening signal at RXFP3 / GPCRome screening signal at RXFP4 / GPCRome screening signal at S1PR2 / GPCRome screening signal at S1PR3 / GPCRome screening signal at S1PR4 / GPCRome screening signal at S1PR5 / GPCRome screening signal at SCTR / GPCRome screening signal at SSTR2 / GPCRome screening signal at SSSTR / GPCRome screening signal at SSTR4 / GPCRome screening signal at SSTR5 / GPCRome screening signal at SUCNR1 / GPCRome screening signal at TA1 / GPCRome screening signal at TAAR2 / GPCRome screening signal at TAAR5 / GPCRome screening signal at TAAR6 / GPCRome screening signal at TAAR8 / GPCRome screening signal at TACR1 / GPCRome screening signal at TACR2 / GPCRome screening signal at TACR3 / GPCRome screening signal at TBXA2R / GPCRome screening signal at TSHR / GPCRome screening signal at UTS2R / GPCRome screening signal at VIPR2 / GPCRome screening signal at GPR68 no V2 Tail / GPCRome screening signal at GRM2 / GPCRome screening signal at GRM3: reference not given here
[1] = target: T1, 320 non-olfactory GPCRs (Homo sapiens, UniProt P21731); conditions: receptor TBXA2R
T1 construct: expressed in transfected cells; host or cells: HTLA cells
T1 sequence (P21731 whole entry): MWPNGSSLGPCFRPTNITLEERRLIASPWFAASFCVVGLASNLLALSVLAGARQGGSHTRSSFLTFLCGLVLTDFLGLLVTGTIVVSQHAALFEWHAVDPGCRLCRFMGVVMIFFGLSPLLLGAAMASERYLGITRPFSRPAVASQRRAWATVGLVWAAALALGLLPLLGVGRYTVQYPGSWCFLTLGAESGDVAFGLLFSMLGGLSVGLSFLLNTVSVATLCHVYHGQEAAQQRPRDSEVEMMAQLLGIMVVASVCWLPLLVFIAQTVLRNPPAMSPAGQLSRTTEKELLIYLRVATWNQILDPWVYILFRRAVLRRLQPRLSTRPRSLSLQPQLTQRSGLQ

[2] = target: T2, 320 non-olfactory GPCRs (Homo sapiens, UniProt P41587); conditions: receptor VIPR2
T2 construct: expressed in transfected cells; host or cells: HTLA cells
T2 sequence (P41587 24-438): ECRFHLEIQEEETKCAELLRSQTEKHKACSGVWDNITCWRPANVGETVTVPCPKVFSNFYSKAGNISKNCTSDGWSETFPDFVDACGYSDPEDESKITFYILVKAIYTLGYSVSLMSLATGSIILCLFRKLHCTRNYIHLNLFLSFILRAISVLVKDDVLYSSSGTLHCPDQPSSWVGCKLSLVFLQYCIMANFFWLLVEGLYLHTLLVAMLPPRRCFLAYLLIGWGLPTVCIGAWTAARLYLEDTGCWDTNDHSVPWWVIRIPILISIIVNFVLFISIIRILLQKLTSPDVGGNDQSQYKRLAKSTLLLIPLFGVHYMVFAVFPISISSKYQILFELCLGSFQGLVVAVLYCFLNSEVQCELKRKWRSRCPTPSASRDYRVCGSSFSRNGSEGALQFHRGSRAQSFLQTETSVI

[3] = target: T3, 320 non-olfactory GPCRs (Homo sapiens, UniProt P43119); conditions: receptor PTGIR
T3 construct: expressed in transfected cells; host or cells: HTLA cells
T3 sequence (P43119 whole entry): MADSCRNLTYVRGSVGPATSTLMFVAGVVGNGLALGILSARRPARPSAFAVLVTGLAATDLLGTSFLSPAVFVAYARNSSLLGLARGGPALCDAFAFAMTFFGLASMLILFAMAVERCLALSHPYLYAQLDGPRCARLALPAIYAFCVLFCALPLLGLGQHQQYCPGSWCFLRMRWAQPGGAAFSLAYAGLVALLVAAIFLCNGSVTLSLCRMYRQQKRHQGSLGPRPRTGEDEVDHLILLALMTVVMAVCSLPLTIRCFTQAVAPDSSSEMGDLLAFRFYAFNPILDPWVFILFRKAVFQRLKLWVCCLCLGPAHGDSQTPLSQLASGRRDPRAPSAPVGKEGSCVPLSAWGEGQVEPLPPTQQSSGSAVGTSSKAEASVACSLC

[4] = target: T4, 320 non-olfactory GPCRs (Homo sapiens, UniProt P49190); conditions: receptor PTH2R
T4 construct: expressed in transfected cells; host or cells: HTLA cells
T4 sequence (P49190 25-550): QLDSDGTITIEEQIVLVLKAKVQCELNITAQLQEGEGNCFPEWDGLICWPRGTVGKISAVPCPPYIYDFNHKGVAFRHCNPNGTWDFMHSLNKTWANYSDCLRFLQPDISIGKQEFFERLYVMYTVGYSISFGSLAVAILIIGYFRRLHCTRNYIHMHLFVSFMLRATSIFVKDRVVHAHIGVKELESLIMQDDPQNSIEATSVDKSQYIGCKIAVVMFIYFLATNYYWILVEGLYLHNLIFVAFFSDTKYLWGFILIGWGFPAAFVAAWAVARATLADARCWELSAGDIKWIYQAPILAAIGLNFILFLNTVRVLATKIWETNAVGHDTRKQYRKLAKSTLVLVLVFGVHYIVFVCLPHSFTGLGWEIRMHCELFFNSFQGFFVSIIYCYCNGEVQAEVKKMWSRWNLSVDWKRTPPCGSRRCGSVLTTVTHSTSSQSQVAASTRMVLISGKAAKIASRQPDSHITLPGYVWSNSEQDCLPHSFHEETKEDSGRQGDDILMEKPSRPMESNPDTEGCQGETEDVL

[5] = Fig_5f, single replicate values
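Wherever GPCRome agonism screen response is given: fold over basal response of each receptor without drug.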

GPCRome screening signal at TBXA2R [1, 5] | GPCRome screening signal at VIPR2 [2, 5] | GPCRome screening signal at PTGIR [3, 5] | GPCRome screening signal at PTH2R [4, 5] | SMILES | GPCRome agonism screen response ([1]; replicate values, Fig_4g) | GPCRome agonism screen response ([2]; replicate values, Fig_4g) | GPCRome agonism screen response ([3]; replicate values, Fig_4g) | GPCRome agonism screen response ([4]; replicate values, Fig_4g)
1.076 and 0.505 and 0.6523 and 0.5698 | 0.8302 and 1.005 and 0.9541 and 0.5143 | 0.4707 and 0.7235 and 1.819 and 1.564 | 0.8447 and 0.9374 and 0.7725 and 1.472 | CCOc1ccccc1CCC(C)NCC1(O)CCCCC1.Cl (racemic) [Fig_5f] | – | – | – | –
– | – | – | – | CCOc1cccc2cc(C(C)NCC3(O)CCCCC3)oc12 (centres unmarked) [O4LE6] | 0.6818 and 0.496 and 0.4453 and 0.576 | 0.366 and 1.433 and 1.331 and 0.8644 | 1.654 and 0.8806 and 0.8629 and 1.301 | 1.171 and 0.1179 and 1.638 and 1.06

From publication PMC7044277 (Nature Communications, 2020)
